According to patent US20260021180A1, “IMPROVING ADOPTIVE CELL TRANSFER THERAPY (ACT) TREATMENT” (YISSUM RESEARCH DEVELOPMENT COMPANY OF THE HEBREW …, priority 2022, published 2026):

Experiments:
HEK-293T cells [1] = experiment: Cell survival by PI staining (flow cytometry) of transfected HEK-293T cells in glucose-free, trehalose-supplemented medium; type: cell-based, human; details: four days
Description: (§1) FIGS. 2A-2C: Treh and Tret1 co-expression rescues the proliferation and survival of HEK-293T cells in glucose-free, trehalose-supplemented medium. (2A) Histograms of cell survival as measured by PI staining using a flow cytometer. HEK-293T cells were transfected with either Tret1-3×Flag expression plasmid, HA-Treh expression plasmid or both together. 48 h post-transfection medium was replaced to a glucose-free medium supplemented with the indicated trehalose concentrations. Four days later flow analysis was performed. (2B) Histograms of cell survival as measured by PI staining using a flow cytometer. HEK-293T cells were co-transfected with Tret1-3×Flag and HA-Treh expression plasmids or pCDNA3.1 (empty vector). 48 h post-transfection medium was replaced with glucose-free medium supplemented with the 25 mM trehalose. Four days later, flow analysis was performed. (2C) Bar graph of MMT analysis. HEK-293T cells were transfected with pCDNA3.1 (empty vector), Tret1-3×Flag or HA-Treh expression plasmids or both plasmids together. 48 h post-transfection medium was replaced with glucose-free medium supplemented with 25 mM trehalose. Ten days later, cell survival was measured by MTT assay.
(§2) To test the function of delivered Treh and Tret1 genes in HEK-293T cells the survival of Treh/Tret1 expressing cells was tested in the absence or presence of various trehalose concentrations in glucose-free media.

HEK-293T cells [2] = experiment: Extracellular acidification rate (ECAR), Seahorse analysis, HEK-293T cells; type: cell-based, human; details: trehalose 5 mM, oligomycin 1 μM, 2DG 50 mM, added in sequence
Description: FIG. 3: Treh and Tret1 co-expression allows utilization of Trehalose as a carbon source for glycolysis. Line graph of the Extra Cellular Acidification Rate (ECAR) of Tret1-3×Flag and Treh-GFP expressing (transduced with retrovirus expressing both Tret1-3×Flag and Treh-GFP) or wild-type HEK-293T cells. Trehalose was added at 5 mM, Oligomycin at 1 μM and 2DG (2-Deoxy-D-glucose) at 50 mM.
To directly examine this notion, whether trehalose restores glycolysis of Treh/Tret1 expressing cells was tested. For this purpose, the extracellular acidification rate (ECAR), as a proxy for lactate secretion, of Treh/Tret1 or wild-type cells, was analyzed using Seahorse analysis.

human CD8 T cells = experiment: Metabolic isotope tracing (13C6-glucose vs 13C12-trehalose, LC-MS) in DmTret1-1B/Treh-expressing human CD8 T cells; type: cell-based; details: 24 h with 13C12-Trehalose vs 13C6-Glucose; glycolysis, pentose phosphate pathway, TCA cycle
Description: FIGS. 6A-6I: Human primary T cells utilize trehalose for glycolysis, proliferation and cytokine production. Human primary PBMCs were activated with anti-CD3 and anti-CD28 for 48 hours. Then, they were retrovirally transduced with Treh1 and a trehalose transporter. (6A) FACS analysis of the T cells transduced with Treh1-GFP and Dm-Tret1-1B-mKate2. CD8 T cells were gated, and expression was analyzed 48 h after transduction. (6B) FACS analysis of the T cells transduced with Treh1-GFP and Dm-Tret1-1A-mKate2. CD8 T cells were gated, and expression was analyzed 48 h after transduction. (6C) Normalized ECAR measured by Seahorse analysis following trehalose or glucose supplementation and oligomycin and 2DG injections of Treh1 or DmTret1-1B/Treh1-expressing CD8 T cells. (6D-G): DmTret1-1B/Treh-expressing human CD8 T cells were incubated for 24 h with 13C6-Glucose or 13C12-Trehalose. Then cell extracts and media were subjected to metabolic analysis using LC-MS. (6D) Levels of lactate isotopologues in the medium of the cells. (6E-G) Isotopologue distributions in the cell fraction of detected key metabolites generated during (6E) glycolysis, (6F) the TCA cycle and (6G) the phosphate pentose pathway. […] Cells were counted every 3-4 days. […] Media was collected and INF-γ concentration was measured by ELISA at optical density of 605 (O.D.605). […]

HEK-293T cells [3] = experiment: MTT assay of transfected HEK-293T cells in glucose-free medium supplemented with trehalose; type: cell-based, human
Description: as §1, §2

## OC[C@H]1O[C@H](O[C@H]2O[C@H](CO)[C@@H](O)[C@H](O)[C@H]2O)[C@H](O)[C@@H](O)[C@@H]1O [trehalose]
HEK-293T cells [1]; HEK-293T co-transfected with Tret1-3×Flag and HA-Treh, glucose-free medium + 25 mM trehalose
  rescue of survival of Treh/Tret1 expressing cells: could rescue the survival
HEK-293T cells [1]; HEK-293T with pCDNA3.1 empty vector, glucose-free medium + 25 mM trehalose
  rescue of survival of empty vector transfected cells: not
HEK-293T cells [1]; HEK-293T, glucose-free media, 2 mM trehalose, PI staining
  survival of Treh/Tret1 expressing cells: substantial rescue
HEK-293T cells [1]; HEK-293T, glucose-free media, various trehalose concentrations
  survival of Treh/Tret1 expressing cells versus trehalose concentration: increased survival of the cells in correlation with the trehalose concentration
HEK-293T cells [2]
  ECAR of HEK293T cells expressing Treh/Tret1 following addition: significant increase
Human CD8 T cells
  metabolic pathways into which the sugar integrates: integrates into the same metabolic pathways as glucose

## O=CC[C@@H](O)[C@H](O)[C@H](O)CO [2-Deoxy-D-glucose, reference compound]
HEK-293T cells [2]
  ECAR of HEK293T cells expressing Treh/Tret1 following addition: significantly decreased

## CC[C@H]1/C=C/C=C/C[C@@H](C)[C@H](O)[C@@](C)(O)C(=O)[C@@H](C)[C@H](O)[C@@H](C)C(=O)[C@@H](C)[C@H](O)[C@@H](C)/C=C/C(=O)O[C@@H]2[C@H](C)[C@H](CC1)O[C@]1(CC[C@H](C)[C@H](C[C@@H](C)O)O1)[C@H]2C [oligomycin, reference compound]
HEK-293T cells [2]
  ECAR of HEK293T cells expressing Treh/Tret1 following addition: did not lead to an elevation in ECAR

B1: Tret1: Drosophila melanogaster trehalose transporter 1, long isoform A, 857 amino acids (SEQ ID NO: 5), expressed in human cells (protein)
chain: MSGRDNRGAGGGGGGHQPLSNAMGKLKEKLTRVGDELGYHRVESNLSTSNTATSLDTILPEDPFLFPQVSPQRHPQNTVRTQRLLEDEPPLSFRPLLEDDDINEPPTQQQQRTPLRASGSLELTPLPPPPTSLEIREHRDRQQRGAQGDELQRSKQSLKGSRVSFERRDTGNSNTNSNKAAESSDEDSFEEKRTGFQQQKATSVDHKGILKDLKHILANDNRRQFQAKKHVSLDVKGTRFLQDLLKESSSEEEFHKTRREFQGRKHQSLDPRVTFKLDKVLQGSSTDSDEEGEDAEHKRLIHRPKDITKPVIIDLKDLESESDEDFLTSRQHFQQQRSISTDSRKSRRLYEMDEMDNKRGENIRHAVPFVRQITEDGKPKLEVYRPTTNPIYIWTQVLAALSVSLGSLVVGFVSAYTSPALVSMTDRNITSFEVTQDAGSWVGGIMPLAGLAGGIAGGPLIEYLGRRNTILATAVPFIVSSLLIACAVNVAMVLCGRFLAGFCVGIASLSLPVYLGETVQPEVRGTLGLLPTAFGNIGILLCFVAGSFMNWSMLAFLGAALPVPFLILMFLIPETPRWFVGRGLEERARKALKWLRGKEADVEPELKGLMRSQADADRQASRNTMLELLKLNNLKPLSISLGLMFFQQFSGINAVIFYTVQIFKDAGSTIDGNLCTIIVGIVNFLATFIGIVLIDRAGRKILLYVSDIAMVLTLFVLGGFFYCKTYGPDVSHLGWLPLTCFVIYILGFSLGFGPIPWLMMGEILPAKIRGSAASVATAFNWFCTFVVTKTFQDLTVAMGAHGAFWLFGAICFVGLFFVIIYVPETQGKTLEDIERKMMGRVRRMSSVANIKPLSFNM
modifications: 3xFlag tag; Drosophila melanogaster
HEK-293T cells [3]
  survival of mammalian cells with trehalose as the only sugar source (summary statement): greatly improved survival
